Experimental data from PMC11530827, “Characterization of a cytochrome P450 that catalyzes the O-demethylation of lignin-derived benzoates” (The Journal of Biological Chemistry, 2024).

Legend:
[1] = target: T1, PbdA S87A/S237A (Rhodococcus jostii, UniProt Q0SCI3, S235A/S85A); test: Activity and coupling assay of PbdA S87A/S237A variant with PbdB; format: biochemical, Rhodococcus jostii RHA1
T1 construct: hexaHis (N, cleaved yes); made in house; host or cells: PbdA variant: E. coli BL-21 λ (DE3); PbdB: Rhodococcus jostii RHA1
Protocol: (§1) For activity measurements 0.25 to 1 μM of PbdA and PbdB were combined in a 200 μl cuvette in 20 mM Mops, pH 7.2 with substrate diluted in the same buffer. NADH was added to 350 μM to initiate the reaction. For HPLC analysis, enzymatic reactions were acidified by adding acetic acid to 10% final concentration, centrifuged (16,000×g for 10 min), and filtered through a 0.2 μm polytetrafluoroethylene membrane. Samples were run over a Luna 5 μm C18(2) 100 Å 150 × 3 mm column (Phenomenex) at 0.7 ml min^−1 by a Waters 2695 separation HPLC module. Samples were eluted with a 16.8 ml linear gradient from 1% methanol plus 0.1% formic acid in water to 100% methanol plus 0.1% formic acid and monitored at 280 nm with a Waters 2996 photodiode array detector. Concentrations were determined by interpolation on a standard curve of 0 to 1 mM of authentic standard. NADH concentration was measured by absorbance at 340 nm, ε = 6.22 mM^-1 cm^-1. Coupling was calculated from the ratio of rate of aromatic turnover, as determined by HPLC, and the rate of NADH oxidation, determined spectroscopically. Buffer ionic strength was adjusted by addition of NaCl, as appropriate. Apparent steady-state kinetic parameters were calculated by fitting Michaelis–Menten equations to initial velocity of reactions at various concentrations of aromatic substrate (LEONORA).
(§2) ^aExperiments were performed using air-saturated MOPS (I = 0.1 M), pH 7.2, at 25 °C. The rate of aromatic substrate turnover was based on the appearance of O-demethylated product. Standard deviation is shown in parentheses.

[2] = target: T2, PbdA S237A (Rhodococcus jostii, UniProt Q0SCI3, S235A); test: Activity and coupling assay of PbdA S237A variant with PbdB; format: biochemical, Rhodococcus jostii RHA1
T2 construct: hexaHis (N, cleaved yes); made in house; host or cells: PbdA variant: E. coli BL-21 λ (DE3); PbdB: Rhodococcus jostii RHA1
Protocol: as §1, §2

[3] = target: T1, PbdA S87A/S237A; test: Substrate binding to PbdA S87A/S237A variant by spectral titration; design: species or system Rhodococcus jostii RHA1
Protocol: (§3) UV-visible spectroscopy was conducted with a Cary 60 spectrophotometer equipped with a thermostatted cuvette holder at 25 °C. Scans of purified proteins diluted in 20 mM Mops, I = 0.1 M, pH 7.2 were taken between 250 and 700 nm. Heme concentration was calculated as described previously ([35]). Carbon monoxide binding was determined by reduction of PbdA diluted in 20 mM Mops, I = 0.1 M, pH 7.2 as above by a few grains of […]. CO was bubbled into the reduced enzyme for approximately 60 s at a rate of one bubble per second. Dissociation constants (Kd) were determined by titration of ligands diluted into enzyme buffer from 1 M stocks prepared in dimethyl sulfoxide into PbdA diluted in 20 mM Mops, I = 0.1 M, pH 7.2. Spectra take upon addition of substrate were subtracted from the spectrum of the enzyme, and peak-to-trough distance was plotted by ligand concentration. Kd values were determined by fitting a hyperbolic equation to the data as described previously ([23], [36]). The proportion of high-spin heme iron was determined using the approximate peak-to-trough extinction coefficient (ε ≈ 100 mM^−1 cm^−1) ([36]).

[4] = target: T3, PbdA R84M (Rhodococcus jostii, UniProt Q0SCI3, R82M); test: Activity and coupling assay of PbdA R84M variant with PbdB; format: biochemical, Rhodococcus jostii RHA1
T3 construct: hexaHis (N, cleaved yes); made in house; host or cells: PbdA variant: E. coli BL-21 λ (DE3); PbdB: Rhodococcus jostii RHA1
Protocol: as §1, §2

[5] = target: T4, PbdA (Rhodococcus jostii, UniProt Q0SCI3); test: Substrate binding to PbdA (WT) by type I spectral shift titration; design: hexaHis (N, cleaved yes); made in house; host or cells: PbdA: E. coli BL-21 λ (DE3); PbdB: Rhodococcus jostii RHA1; settings: WT PbdA
T4 sequence (Q0SCI3 1-400): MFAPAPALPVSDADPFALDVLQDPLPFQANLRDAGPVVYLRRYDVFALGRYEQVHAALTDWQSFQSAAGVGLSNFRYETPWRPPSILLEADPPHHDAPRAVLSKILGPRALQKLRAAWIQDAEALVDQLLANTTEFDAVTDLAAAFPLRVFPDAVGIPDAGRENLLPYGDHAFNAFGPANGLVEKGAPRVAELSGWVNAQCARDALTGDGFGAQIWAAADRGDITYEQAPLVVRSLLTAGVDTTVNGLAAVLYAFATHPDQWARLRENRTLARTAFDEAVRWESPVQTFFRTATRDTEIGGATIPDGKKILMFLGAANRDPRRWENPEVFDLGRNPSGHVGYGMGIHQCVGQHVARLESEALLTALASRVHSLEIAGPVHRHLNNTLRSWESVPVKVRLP
Protocol: The affinity of PbdA for various LDACs was measured by the type I spectral shift upon titration of aromatic compound (Fig. 2). This shift occurs as the compound displaces a water coordinated to the heme iron, initiating a spin state transition in the latter from a low spin, hexacoordinate, to a high spin, pentacoordinate form.
Figure 2 Substrate binding of PbdA. A, difference spectra of PbdA titrated with 1 to 50 μM p-MBA from the substrate-free enzyme. Darker colors indicate higher concentration of p-MBA. Spectra were collected after each addition of substrate to 1 μM enzyme in 20 mM Mops, I = 0.1 M, pH 7.2. B, binding isotherm of PbdA and p-MBA. The fitted curve represents a simple hyperbola. p-MBA, para-methoxybenzoate.
as §3

[6] = target: T3, PbdA R84M; test: Substrate binding to PbdA R84M variant by spectral titration; design: species or system Rhodococcus jostii RHA1
Protocol: as §3

[7] = target: T4, PbdA
Protocol: We then measured coupling under optimum conditions for other substrates. […] Finally, we measured the apparent steady-state kinetic parameters of the PbdA reaction under conditions of maximal coupling (Fig. S4).
as §1

[8] = air-saturated MOPS (I = 0.1 M), pH 7.2, 25 °C
[9] = appearance of O-demethylated product

T2 sequence (Q0SCI3 entry or part of it S235A): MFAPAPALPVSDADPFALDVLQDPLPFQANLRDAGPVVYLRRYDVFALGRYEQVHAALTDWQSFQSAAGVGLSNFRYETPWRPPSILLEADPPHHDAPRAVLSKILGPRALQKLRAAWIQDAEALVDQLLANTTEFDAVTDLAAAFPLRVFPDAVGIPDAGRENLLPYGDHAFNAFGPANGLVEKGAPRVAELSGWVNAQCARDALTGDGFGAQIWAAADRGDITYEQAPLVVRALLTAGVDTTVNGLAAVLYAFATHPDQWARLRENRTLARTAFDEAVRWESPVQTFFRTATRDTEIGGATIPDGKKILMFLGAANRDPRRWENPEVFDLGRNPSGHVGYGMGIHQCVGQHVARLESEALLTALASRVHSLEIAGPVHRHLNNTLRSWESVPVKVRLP
T1 sequence (Q0SCI3 entry or part of it S85A/S235A): as the sequence (Q0SCI3 entry or part of it S235A) above, with S85A counted along it
T3 sequence (Q0SCI3 entry or part of it R82M): as the sequence (Q0SCI3 entry or part of it S235A) above, with R82M, A235S counted along it

For COc1ccc(C(=O)O)cc1 [p-MBA, p-methoxybenzoate], the Coupling [1] was 40 (2) %, the Specific activity ([1]; O-demethylation) was 180 (10) U μg P450^-1 and the NADH depletion rate [1, 8] was 400 (30) U mg P450^-1. For the same molecule, the “Rate of Aromatic turnover” value [1, 9] was 170 (10) U mg P450^-1, the Coupling [2] was 80 (2) % and the Specific activity ([2]; O-demethylation) was 2600 (400) U μg P450^-1. The NADH depletion rate [2, 8] was 3600 (600) U mg P450^-1, the “Rate of Aromatic turnover” value [2, 9] was 2600 (400) U mg P450^-1 and the Kd [3] was 70 µM. The “ΔG°” value ([3]; S87A/S237A variant, binding energy) was -5.7 kcal/mol, the “ΔΔG°” value ([3]; S87A/S237A variant, comparison of ΔG° of variant to wild type) was 1.7 kcal/mol and the Coupling [4] was 70 (9) %. For the same molecule, the Specific activity ([4]; O-demethylation) was 1100 (200) U μg P450^-1, the NADH depletion rate [4, 8] was 1700 (200) U mg P450^-1 and the “Rate of Aromatic turnover” value [4, 9] was 1100 (200) U mg P450^-1. For the same molecule, the Kd ([5]; 20 mM Mops, I = 0.1 M, pH 7.2, 25 °C, SD in parentheses, read-out: Kd) was 3.8 µM, the “%High-spin (percent of heme iron in high-spin state)” value ([5]; on substrate binding) was >99% and the Kd [6] was 36 µM. For the same molecule, the “ΔG°” value ([6]; R84M variant, binding energy) was -6.1 kcal/mol, the “ΔΔG°” value ([6]; R84M variant, comparison of ΔG° of variant to wild type) was 1.3 kcal/mol and the “kcat (apparent)” value ([7]; WT PbdA with PbdB, air-saturated Mops (I = 0.1 M), pH 7.2, 25 °C, SD in parentheses) was 0.37 (0.02) s^−1. For the same molecule, the Specific activity ([7]; WT PbdA, O-demethylation, SD in brackets) was 2700 (100) U μg P450^-1, the NADH depletion rate ([7]; WT PbdAB, air-saturated MOPS (I = 0.1 M), pH 7.2, 25 °C, SD in parentheses) was 2700 (100) U mg P450^-1 and the “Rate of Aromatic turnover” value ([7]; WT PbdAB, appearance of O-demethylated product (disappearance of p-EB), SD in parentheses) was 2700 (200) U mg P450^-1. For the same molecule, the Coupling ([7]; WT PbdAB, ratio of aromatic turnover rate to NADH oxidation rate) was 100 (3) % and the Km ([7]; read-out: KM (apparent), WT PbdA with PbdB, air-saturated Mops (I = 0.1 M), pH 7.2, 25 °C, SD in parentheses) was 18 µM.
